This note sets out measurements from PubChem BioAssay (NCI).

Test systems include EKVX NSCLC; HL-60(TB) leukemia; MOLT-4 leukemia; NCI-H460 lung; OVCAR-3 ovarian; OVCAR-5 ovarian; SF-268 CNS; SK-MEL-2 melanoma; UO-31 renal.
Holding throughout (experiment): NCI-60 cell line screen, 48 h

SMILES strings stand for the structures.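 The compound was tested at five concentrations on cells cultured in 96-well plates, with a 48-hour exposure period. GI50 is the concentration that inhibits growth by half. Definition used: TGI = concentration required for complete inhibition of growth.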

Consider `CCN1C(=O)N(CC)C2C1NC(=S)N2/N=C/C=C/c1ccccc1` (stereo not drawn), for which the GI50 is 634 nM in the experiment on EKVX NSCLC; 38.7 nM in the experiment on HL-60(TB) leukemia; 277 nM with MOLT-4 leukemia; 176 nM with NCI-H460 lung; 42.5 nM with OVCAR-3 ovarian; 465 nM in the experiment with OVCAR-5 ovarian. Also, the GI50 with SF-268 CNS was 320 nM; in the experiment with SK-MEL-2 melanoma, 661 nM; in the experiment with UO-31 renal, 192 nM. In addition, the TGI in the experiment with EKVX NSCLC was above 100000 nM; in the experiment on HL-60(TB) leukemia it was 290 nM; in the experiment on MOLT-4 leukemia it was above 100000 nM; in the experiment on NCI-H460 lung, above 100000 nM; with OVCAR-3 ovarian, above 100000 nM; in the experiment with OVCAR-5 ovarian, above 100000 nM. Further, the TGI with SF-268 CNS is above 100000 nM; with SK-MEL-2 melanoma it was above 100000 nM; with UO-31 renal, above 86600 nM.

With `CN(C)CCNC(=O)Nc1ccc(N(C)c2ccnc(Nc3ccc(CS(C)(=O)=O)cc3)n2)cc1`, the GI50 with EKVX NSCLC, with HL-60(TB) leukemia, in the experiment with MOLT-4 leukemia, with NCI-H460 lung, with OVCAR-3 ovarian and with OVCAR-5 ovarian was above 25000 nM each time. For the same compound, the GI50 in the experiment on SF-268 CNS, in the experiment on SK-MEL-2 melanoma and in the experiment on UO-31 renal was above 25000 nM each time. The TGI with EKVX NSCLC, in the experiment with HL-60(TB) leukemia, with MOLT-4 leukemia, in the experiment on NCI-H460 lung, in the experiment with OVCAR-3 ovarian and in the experiment on OVCAR-5 ovarian was above 25000 nM each time. Moreover, the TGI in the experiment on SF-268 CNS, with SK-MEL-2 melanoma and in the experiment on UO-31 renal was above 25000 nM throughout.

With `COC(=O)[C@]12CC[C@@H](C)[C@H](C)[C@@H]1C1=CC[C@@H]3[C@@]4(C)C(C=O)=C[C@@](C)(COS(C)(=O)=O)C4=CC[C@@]3(C)[C@]1(C)CC2`, the GI50 was 315 nM with EKVX NSCLC; 276 nM with HL-60(TB) leukemia; 244 nM in the experiment with MOLT-4 leukemia; 226 nM with NCI-H460 lung; 183 nM with OVCAR-3 ovarian; 215 nM in the experiment with OVCAR-5 ovarian. Also, the GI50 in the experiment with SF-268 CNS was 248 nM; in the experiment with SK-MEL-2 melanoma it was 226 nM; in the experiment on UO-31 renal it was 158 nM. Besides, the TGI in the experiment on EKVX NSCLC amounted to 1340 nM; in the experiment on HL-60(TB) leukemia it was 835 nM; with MOLT-4 leukemia, 1050 nM; with NCI-H460 lung it was 534 nM; with OVCAR-3 ovarian, 359 nM; in the experiment with OVCAR-5 ovarian, 570 nM. Besides, the results for the TGI with SF-268 CNS, in the experiment with SK-MEL-2 melanoma and with UO-31 renal were 721 nM, 497 nM and 321 nM, respectively.

For the compound `Nc1ncnc2c1c(-c1ccc(Oc3ccccc3)cc1)nn2CC1SSCC1O` (stereo not drawn), the GI50 in the experiment with EKVX NSCLC was 1040 nM; with HL-60(TB) leukemia it was 1490 nM; in the experiment with MOLT-4 leukemia it was 124 nM; in the experiment with NCI-H460 lung, 111 nM; with OVCAR-3 ovarian, 659 nM; with OVCAR-5 ovarian, 7200 nM. The values for the GI50 in the experiment on SF-268 CNS, with SK-MEL-2 melanoma and with UO-31 renal were 126 nM, 825 nM and 1220 nM, respectively. For the same compound, the TGI in the experiment on EKVX NSCLC worked out at 6250 nM; in the experiment on HL-60(TB) leukemia, 7990 nM; in the experiment on MOLT-4 leukemia, 621 nM; in the experiment with NCI-H460 lung, 7970 nM; in the experiment with OVCAR-3 ovarian, 1620 nM; in the experiment with OVCAR-5 ovarian it was 28800 nM. Besides, the TGI in the experiment with SF-268 CNS was found to be 7010 nM; with SK-MEL-2 melanoma it was 2150 nM; in the experiment with UO-31 renal, 5880 nM.

With `C[C@]12CCc3nc(Nc4ccc(O)cc4)sc3C1=CC[C@@H]1[C@@H]2CC[C@]2(C)/C(=N/NC(N)=S)CC[C@@H]12`, the GI50 with EKVX NSCLC was 1570 nM; with HL-60(TB) leukemia it was 1880 nM; with MOLT-4 leukemia it was 470 nM; with NCI-H460 lung it was 525 nM; with OVCAR-3 ovarian, 1560 nM; in the experiment with OVCAR-5 ovarian, 1980 nM. Besides, the GI50 with SF-268 CNS is 1340 nM; with SK-MEL-2 melanoma, 1690 nM; in the experiment with UO-31 renal it was 1300 nM. Also, the TGI with EKVX NSCLC was found to be 3610 nM; in the experiment with HL-60(TB) leukemia, 5070 nM; in the experiment on MOLT-4 leukemia, 3390 nM; with NCI-H460 lung, 1940 nM; in the experiment on OVCAR-3 ovarian, 3120 nM; in the experiment on OVCAR-5 ovarian, 4800 nM. For the same compound, the TGI in the experiment with SF-268 CNS is 3980 nM; with SK-MEL-2 melanoma it was 3520 nM; with UO-31 renal, 2570 nM.

On to `Cn1cc(-c2ccc3ncc(-c4ccc(CC(=O)Nc5cc(C(C)(C)C)nn5C)cc4)cc3c2)cn1`, for which the GI50 in the experiment on EKVX NSCLC is 1880 nM; in the experiment on HL-60(TB) leukemia it was 1200 nM; in the experiment on MOLT-4 leukemia, 706 nM; with NCI-H460 lung, 786 nM; with OVCAR-3 ovarian, 1400 nM; in the experiment on OVCAR-5 ovarian, 7830 nM. Further, the values for the GI50 in the experiment with SF-268 CNS, in the experiment with SK-MEL-2 melanoma and in the experiment on UO-31 renal were 1450 nM, 789 nM and 331 nM, respectively. The TGI is above 20000 nM in the experiment with EKVX NSCLC; 8280 nM in the experiment on HL-60(TB) leukemia; 3250 nM with MOLT-4 leukemia; above 20000 nM with NCI-H460 lung; above 20000 nM in the experiment on OVCAR-3 ovarian; above 20000 nM in the experiment with OVCAR-5 ovarian. In addition, the TGI was above 20000 nM in the experiment with SF-268 CNS, 7140 nM with SK-MEL-2 melanoma and 2080 nM with UO-31 renal.

Turning to `O=C(Nc1ccc(-n2cc(-c3ccncc3)c(-c3ccc(Cl)c(O)c3)n2)cc1)c1cc(C(F)(F)F)cc(C(F)(F)F)c1`, the GI50 is 22000 nM in the experiment with EKVX NSCLC; above 100000 nM in the experiment on HL-60(TB) leukemia; 8870 nM in the experiment with MOLT-4 leukemia; 3820 nM in the experiment on NCI-H460 lung; 3440 nM in the experiment on OVCAR-3 ovarian; 21400 nM in the experiment with OVCAR-5 ovarian. The figures for the GI50 in the experiment on SF-268 CNS, in the experiment on SK-MEL-2 melanoma and with UO-31 renal were 7390 nM, 6610 nM and 2800 nM, respectively. Besides, the TGI with EKVX NSCLC is above 100000 nM; in the experiment on HL-60(TB) leukemia it was above 100000 nM; with MOLT-4 leukemia it was above 100000 nM; in the experiment with NCI-H460 lung, 14000 nM; with OVCAR-3 ovarian, 12200 nM; in the experiment with OVCAR-5 ovarian, above 100000 nM. Also, the TGI is 51600 nM in the experiment with SF-268 CNS, 31700 nM with SK-MEL-2 melanoma and 13500 nM in the experiment with UO-31 renal.

Regarding `S=C(Sc1ccc(Cl)cc1)Sc1ccc(Cl)cc1`, the GI50 with EKVX NSCLC was 3030 nM; with HL-60(TB) leukemia, 1930 nM; in the experiment on MOLT-4 leukemia, 1270 nM; in the experiment with NCI-H460 lung, 3120 nM; with OVCAR-3 ovarian it was 1740 nM; in the experiment on OVCAR-5 ovarian, 2320 nM. For the same compound, the values for the GI50 with SF-268 CNS, in the experiment with SK-MEL-2 melanoma and in the experiment with UO-31 renal were 2100 nM, 4610 nM and 1310 nM, respectively. The TGI in the experiment on EKVX NSCLC was determined as 13600 nM; in the experiment on HL-60(TB) leukemia, 8620 nM; with MOLT-4 leukemia, 4530 nM; in the experiment on NCI-H460 lung, 13400 nM; in the experiment with OVCAR-3 ovarian it was 3120 nM; in the experiment with OVCAR-5 ovarian it was 4810 nM. Moreover, the results for the TGI in the experiment on SF-268 CNS, with SK-MEL-2 melanoma and in the experiment with UO-31 renal were 6600 nM, 16700 nM and 2630 nM, respectively.

Turning to `OCCNc1nc2ccccc2c2[nH]c3ccccc3c12`, the GI50 was 2140 nM with EKVX NSCLC; 349 nM with HL-60(TB) leukemia; 240 nM in the experiment with MOLT-4 leukemia; 305 nM in the experiment on NCI-H460 lung; 516 nM in the experiment on OVCAR-3 ovarian; 1130 nM with OVCAR-5 ovarian. The GI50 was 519 nM in the experiment on SF-268 CNS, 907 nM with SK-MEL-2 melanoma and 297 nM in the experiment on UO-31 renal. In addition, the TGI in the experiment on EKVX NSCLC came out at 15500 nM; in the experiment with HL-60(TB) leukemia, 1950 nM; with MOLT-4 leukemia it was 1480 nM; with NCI-H460 lung, 1240 nM; in the experiment with OVCAR-3 ovarian, 3470 nM; in the experiment with OVCAR-5 ovarian, 7550 nM. Besides, the TGI was 3420 nM with SF-268 CNS, 3290 nM with SK-MEL-2 melanoma and 1370 nM in the experiment with UO-31 renal.

In the case of `COc1cc([C@@H]2c3cc4c(cc3[C@H](SC(=N)N)[C@H]3COC(=O)[C@H]23)OCO4)cc(OC)c1OC`, the GI50 in the experiment on EKVX NSCLC was 291 nM; in the experiment with HL-60(TB) leukemia it was 250 nM; with MOLT-4 leukemia, 382 nM; with NCI-H460 lung, 294 nM; with OVCAR-3 ovarian, 76.7 nM; with OVCAR-5 ovarian, 638 nM. Moreover, the GI50 in the experiment on SF-268 CNS was 421 nM; with SK-MEL-2 melanoma it was 5780 nM; in the experiment with UO-31 renal, 2600 nM. The TGI was above 100000 nM in the experiment on EKVX NSCLC; above 100000 nM with HL-60(TB) leukemia; above 100000 nM in the experiment with MOLT-4 leukemia; 56100 nM in the experiment with NCI-H460 lung; 350 nM with OVCAR-3 ovarian; above 100000 nM with OVCAR-5 ovarian. Besides, the TGI in the experiment with SF-268 CNS was above 100000 nM; in the experiment on SK-MEL-2 melanoma, above 100000 nM; in the experiment on UO-31 renal, above 71200 nM.

As to `O=C1Nc2ccc(-c3cccnc3)cc2/C1=C/c1cc(Br)c(O)c(Br)c1`, the GI50 with EKVX NSCLC is 10200 nM; with HL-60(TB) leukemia, 6970 nM; in the experiment on MOLT-4 leukemia, 8040 nM; in the experiment with NCI-H460 lung, 6970 nM; in the experiment on OVCAR-3 ovarian, 5050 nM; in the experiment on OVCAR-5 ovarian, 15600 nM. In addition, the figures for the GI50 in the experiment on SF-268 CNS, with SK-MEL-2 melanoma and in the experiment on UO-31 renal were 7710 nM, 3110 nM and 6540 nM, respectively. Also, the TGI is above 25000 nM with EKVX NSCLC; above 22100 nM in the experiment on HL-60(TB) leukemia; above 25000 nM in the experiment on MOLT-4 leukemia; above 25000 nM with NCI-H460 lung; 12800 nM with OVCAR-3 ovarian; above 25000 nM in the experiment with OVCAR-5 ovarian. The values for the TGI in the experiment with SF-268 CNS, in the experiment on SK-MEL-2 melanoma and in the experiment with UO-31 renal were above 25000 nM, 6850 nM and above 18300 nM, respectively.
